Results reported in BindingDB's records for doi:10.1007/s10822-022-00478-x (Roche Innovation Center Basel, F. Hoffmann-La Roche Ltd., 2022).

Target: cAMP and cAMP-inhibited cGMP 3',5'-cyclic phosphodiesterase 10A (Homo sapiens, UniProt Q9Y233)
Assay: PDE10A assay
How it was run: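 Scintillation proximity readout of [3H]cGMP hydrolysis (50 nM final substrate, 15 min) by 2 ng/well human PDE10A after 15 min compound preincubation at RT, pH 7.5 with MgCl2. Four-parameter logistic fit gave IC50, reported as pIC50.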

IC50 [nM]	SMILES
0.48	Cn1ncc(C(=O)N2CCC2)c1C(=O)Nc1ccc2nc(N3CCCC3)nn2c1 [Roche-Dataset for PDE10A, Compound 469]
119	CN(C)c1nc(OCc2nc3ccccc3n2C)nc2ccc(Cl)cc12 [Roche-Dataset for PDE10A, Compound 470]
933	O=C(Nc1ccncc1F)c1ccc2cc(-c3ccccc3)nn2c1 [Roche-Dataset for PDE10A, Compound 471]
8.21	COc1ccccc1-c1cn2c(n1)C[C@H](NC(=O)c1c(C(=O)N(C)C)cnn1C)CC2 [Roche-Dataset for PDE10A, Compound 473]
5.37	Cc1cnc(C)n2nc(/C=C/c3nc(N4CCCC4)nn3C)nc12 [Roche-Dataset for PDE10A, Compound 474]
8.2	Cc1cc(C)n2nc(CCc3nc(N4CCCC4)nn3C3CC3)nc2n1 [Roche-Dataset for PDE10A, Compound 475]
9330	Cc1noc(C(F)(F)F)c1C(=O)Nc1ccn2nc(-c3ccccc3)nc2c1 [Roche-Dataset for PDE10A, Compound 478]
11	CCn1nccc1C(=O)Nc1cc2nc(-c3ccccc3)[nH]c2cc1C(=O)NC [Roche-Dataset for PDE10A, Compound 482]
848	Cc1cnc(C)n2nc(CCc3nc(N4CCNC(=O)C4)nn3C)nc12 [Roche-Dataset for PDE10A, Compound 483]
6.66	O=C(Nc1ccn(CCCC(F)(F)F)n1)c1nc(C2CC2)ccc1Nc1cncnc1 [Roche-Dataset for PDE10A, Compound 485]
58	CCOC(=O)c1cnn(C)c1C(=O)Nc1ccn2nc(N(C)C3CC3)nc2c1 [Roche-Dataset for PDE10A, Compound 486]
5.27	CN(C)c1nc2cc(NC(=O)c3c(C(=O)N4CCCC4)cnn3C)ccn2n1 [Roche-Dataset for PDE10A, Compound 489]
5450	O=C1c2ccccc2C(=O)N1CCc1nc(-c2ccccn2)no1 [Roche-Dataset for PDE10A, Compound 490]
83	O=C(NCCc1cccc(C(F)(F)F)c1)c1nc(C2CC2)cnc1Nc1cncnc1 [Roche-Dataset for PDE10A, Compound 491]
5.55	CCN(C)c1nc2cc(NC(=O)c3c(C(=O)N4CCOCC4)cnn3C)ccn2n1 [Roche-Dataset for PDE10A, Compound 493]
7.85	Cc1ccccc1-c1cn2c(n1)C[C@H](NC(=O)c1c(C(=O)N3CCC3)cnn1C)CC2 [Roche-Dataset for PDE10A, Compound 495]
104	Cn1ncc(C(=O)N2CCOCC2)c1C(=O)Nc1ccn2nc(-n3ccnc3)nc2c1 [Roche-Dataset for PDE10A, Compound 496]
61	Cc1c(Cl)cc(Cl)c2nc(CCc3nc4ccccc4n3C)nn12 [Roche-Dataset for PDE10A, Compound 497]
9.67	O=C(Nc1ccn(CCC(F)(F)F)n1)c1nc(C2CC2)ccc1Nc1cncnc1 [Roche-Dataset for PDE10A, Compound 498]
4170	Cn1nc(N2CCCC2)nc1CCc1nc2cnc(C#N)cn2n1 [Roche-Dataset for PDE10A, Compound 500]
359	CCOC(=O)c1cnn(C)c1C(=O)Nc1ccn2nc(N(C)CC)nc2c1 [Roche-Dataset for PDE10A, Compound 502]
0.87	O=C(Nc1ccnn1-c1ccccc1)c1nc(C2CC2)ccc1Nc1cncnc1 [Roche-Dataset for PDE10A, Compound 507]

IC50 [nM]	SMILES
30	O=C(Nc1cnccc1C(=O)N1CC(F)(F)C1)c1nc(C2CC2)ccc1Nc1cncnc1 [Roche-Dataset for PDE10A, Compound 508]
472	Cc1c(Cl)ccc2nc(CCc3nc4ccc(Cl)c(C)n4n3)nn12 [Roche-Dataset for PDE10A, Compound 512]
20	CN(C)c1nc2cc(NC(=O)c3c(C(=O)N4CC(F)C4)cnn3C)ccn2n1 [Roche-Dataset for PDE10A, Compound 513]
17	COc1ncc(C2CC2)nc1C(=O)Nc1ccn2nc(-c3ccccc3)nc2c1 [Roche-Dataset for PDE10A, Compound 514]
767	Cc1ncc(C)n2nc(CCc3nc(N4CCNCC4)nn3C)nc12 [Roche-Dataset for PDE10A, Compound 515]
1030	O=C(Nc1ccn2nc(-c3ccccc3)nc2c1)c1cnc(Cl)c(Cl)c1 [Roche-Dataset for PDE10A, Compound 518]
1360	CSc1ncc(Nc2cncnc2)c(C(=O)Nc2cc(-c3ccccn3)nn2C)n1 [Roche-Dataset for PDE10A, Compound 519]
2.77	CN(C)c1nc2cc(NC(=O)c3c(C(=O)N4CCC4)cnn3C)ccn2n1 [Roche-Dataset for PDE10A, Compound 520]
17	Cc1c(Cl)cc(Cl)c2nc(CCc3nc(N4CCCC4)no3)nn12 [Roche-Dataset for PDE10A, Compound 521]
10	O=C(Nc1ccc2cc(-c3ccccc3)nn2c1)c1onc2ccc(Br)cc12 [Roche-Dataset for PDE10A, Compound 523]
858	Cc1ncc(C)n2nc(CCc3nc(N4CC5CC4C5)nn3C)nc12 [Roche-Dataset for PDE10A, Compound 524]
111	CNC(=O)c1cc2[nH]c(-c3ccccc3)nc2cc1NC(=O)c1ccn(C)n1 [Roche-Dataset for PDE10A, Compound 526]
18	Cc1noc(C(=O)Nc2ccc3cc(-c4ccccc4)nn3c2)c1Br [Roche-Dataset for PDE10A, Compound 529]
195	CNC(=O)c1nn(C)cc1NC(=O)c1ccc2cc(-c3ccccc3)nn2c1 [Roche-Dataset for PDE10A, Compound 532]
29	CCn1nc(CCc2nc3c(C)ncc(C)n3n2)nc1N1CCCC1 [Roche-Dataset for PDE10A, Compound 533]
7.96	Cn1nc(-c2ccccn2)cc1NC(=O)c1c(C(=O)N2CCC2)cnn1C [Roche-Dataset for PDE10A, Compound 535]
12	O=C(Nc1ccn([C@]23C[C@H]4C[C@H](C[C@H](C4)C2)C3)n1)c1nc(C2CC2)ccc1Nc1cncnc1 [Roche-Dataset for PDE10A, Compound 537]
5.06	Cc1ccc2nc(Cl)c(OCc3nc(-c4ccccc4)cn3C)nc2c1 [Roche-Dataset for PDE10A, Compound 540]
92	Cc1cc(Nc2cncnc2)cc(C(=O)Nc2cc(-c3ccccn3)nn2C)n1 [Roche-Dataset for PDE10A, Compound 542]
2310	Cn1cc(-c2ccccc2)nc1/C=C/c1cc(Cl)nc(Cl)n1 [Roche-Dataset for PDE10A, Compound 543]
20	O=C(Nc1ccc(-n2ccccc2=O)cc1)c1nc(C2CC2)ccc1Nc1cncnc1 [Roche-Dataset for PDE10A, Compound 545]
392	CN1CCN(c2nc3cc(NC(=O)c4c(C(=O)N5CCC5)cnn4C)ccc3s2)CC1 [Roche-Dataset for PDE10A, Compound 546]

IC50 [nM]	SMILES
10000	Cn1nc(-c2ccccn2)cc1NC(=O)c1cc(C(F)(F)F)ncc1Br [Roche-Dataset for PDE10A, Compound 547]
9.76	Cc1cccc(-c2cc(NC(=O)c3c(C(=O)N4CCC4)cnn3C)n[nH]2)n1 [Roche-Dataset for PDE10A, Compound 548]
314	CCOC(=O)c1cnn(C)c1C(=O)Nc1ccn2nc(N(C)C)nc2c1 [Roche-Dataset for PDE10A, Compound 549]
188	Cn1nc(N2CCCC2)nc1/C=C/c1nc(N2CCCC2)nn1C [Roche-Dataset for PDE10A, Compound 550]
6.79	O=C(Nc1ccccc1)c1cccc(NC(=O)c2nc(C3CC3)ccc2Nc2cncnc2)c1 [Roche-Dataset for PDE10A, Compound 556]
189	CNC(=O)c1cc2[nH]c(-c3ccccc3)nc2cc1NC(=O)c1cc(C)on1 [Roche-Dataset for PDE10A, Compound 557]
944	CNC(=O)c1cc2[nH]c(-c3ccccc3)nc2cc1NC(=O)c1cc(C)nn1C(C)(C)C [Roche-Dataset for PDE10A, Compound 558]
24	Cc1ncc(C)n2nc(/C=C/c3nc(N4CC[C@@H](C)C4)nn3C)nc12 [Roche-Dataset for PDE10A, Compound 560]
320	C[C@@H](NC(=O)c1ccc(NC(=O)c2nc(C3CC3)ccc2Nc2cncnc2)s1)c1ccccc1 [Roche-Dataset for PDE10A, Compound 563]
45	Cc1ncc(C)n2nc(/C=C/c3nc(N4CC[C@H](C)C4)nn3C)nc12 [Roche-Dataset for PDE10A, Compound 566]
39	CN(C)c1nc2cc(NC(=O)c3c(C(=O)N4CCOCC4)cnn3C)ccn2n1 [Roche-Dataset for PDE10A, Compound 568]
300	NS(=O)(=O)c1ccc(CCNC(=O)c2nc(C3CC3)cnc2Nc2cncnc2)cc1 [Roche-Dataset for PDE10A, Compound 569]
11900	O=C1c2ccccc2C(=O)N1CCc1nc(-c2ccncc2)no1 [Roche-Dataset for PDE10A, Compound 570]
35	CC(=O)Nc1cccc(NC(=O)c2nc(C3CC3)cnc2Nc2cncnc2)c1 [Roche-Dataset for PDE10A, Compound 571]
281	CN(C)c1nc(/C=C/c2cccc(Br)n2)nc2ccc(Cl)cc12 [Roche-Dataset for PDE10A, Compound 574]
74	CNC(=O)c1cc(NC(=O)c2nc(C3CC3)ccc2Nc2cncnc2)n(C)n1 [Roche-Dataset for PDE10A, Compound 576]
16400	O=C1c2ccccc2C(=O)N1CCc1nc(-c2cccnc2)no1 [Roche-Dataset for PDE10A, Compound 579]
5.65	O=C(Nc1ccn(C2CCCC2)n1)c1nc(C2CC2)ccc1Nc1cncnc1 [Roche-Dataset for PDE10A, Compound 580]
10000	CN(CCNC(=O)c1nc(C2CC2)cnc1Nc1cncnc1)C(=O)c1ccccn1 [Roche-Dataset for PDE10A, Compound 581]
72	Cc1c(Cl)cc(Cl)c2nc(CCc3nncn3-c3ccccc3)nn12 [Roche-Dataset for PDE10A, Compound 582]
